Columns and labels:
[1] = tested on: HEK293-ACE reporter cells; assay: ACE CRISPR/Cas9 reporter system; type: cell-based, human; details: cGAMP transfection; interferon β 50 ng/ml
Description: ACE CRISPR/Cas9 reporter system: The ACE reporter (Addgene #109428) described previously (Aird et al., 2018; St. Martin et al., 2018) was integrated in HEK293 cells using lentiviral transduction. ACE reporter integrated cells (GFP+) were sorted in a Becton Dickinson Influx Cell Sorter and propagated. […] 72 hours post RNP transfection, cells were trypsinized, collected, and analyzed with an Attune NxT flow cytometer (Thermofisher). To quantify the HDR DNA repair events, ˜10,000-30,000 cells were acquired on an Attune NxT cytometer and analyzed using FCS Express software. Single cell events were determined by gating on the area against the width of the forward scatter pulse signal. Debris removal was performed by excluding events with very low forward and side scatter. For determining % of mCherry positive cells we established positive and negative populations using mock transfections as negative controls and mCherry transfected samples as Fluorescence Minus One controls.

[2] = tested on: THP1 cells; assay: Alkaline comet assay in THP1 cells; type: cell-based, human
Description: Comet assays: DNA damage in individual cells was assessed using OxiSelect™ Comet Assay Kits (Cell Biolabs, Cat #STA-351) according to the manufacturer's protocol. THP1 cells were treated as indicated, collected by centrifugation, washed twice with ice-cold PBS, and resuspended in cold PBS at 1×10^5 cells/ml. Cells were mixed with molten Comet agarose (1:10, v/v) and immediately transferred to wells of the Comet Agarose Base Layer (pre-prepared by adding 75 μl molten agarose to Comet slides) in 75 μl aliquots. Cells were embedded on the agarose by cooling the gel at 4° C. for 15 minutes in the dark and then lysed in pre-chilled lysis buffer for 60 minutes at 4° C. The cell-containing slides were neutralized in pre-chilled alkaline buffer for 30 minutes and then carefully transferred to a horizontal electrophoresis chamber. Electrophoresis was conducted in cold Alkaline Electrophoresis Solution (300 mM NaOH, pH>13, 1 mM EDTA) for 30 minutes at 1 volt/cm (300 mA current). The samples were washed three times in pre-chilled water and immersed in 70% ethanol for 5 minutes. The cells were subsequently air dried and their DNA stained with 100 μl/well of diluted Vista Green DNA Dye. After incubating at room temperature, cells were finally visualized under a fluorescence microscope using an FITC filter. Comet length was quantified using OpenComet software as described before (Gyori et al., 2014).

[3] = tested on: U2OS-STING cells; assay: RAD51 and RPA70 foci in EdU+ U2OS-STING cells; type: cell-based, human; details: EdU-positive S-phase cells, Camptothecin 5 μM 16 hours
Description: Immunofluorescence Staining: 16,500 adherent cells/cm^2 were plated on a gelatin coated 8-chamber slide (VWR, Catalogue #62407-296) and treated as indicated. Media was removed and cells were washed with 1×PBS with Ca^2+/Mg^2+ and fixed with 4% PFA for 20 minutes. Fixed cells were permeabilized with PBS+0.1% Triton-X and washed 3 times with PBS+0.1% Tween20. After treatment as indicated, non-adherent THP1 cells were collected by centrifugation, washed in cold PBS and fixed in PFA. Post-fixation, they were washed with PBS, spotted on gelatin coated “PTFE” Printed Slides (Electron Microscopy Sciences, Cat #63424-06), and air-dried. For γH2AX staining, permeabilized cells were blocked in Serum-free DAKO Protein Block (Agilent, Catalogue #X0909) for 1 hr at room temperature. Cells were incubated in primary antibody (γH2AX, 1:500; anti-HA, 1:100; Table 1) in DAKO antibody diluent at 4° C. overnight on a rocker platform. […]
EdU incorporated cells were detected by confocal microscopy after Click-iT® EdU labeling following the manufacturer's protocol (Click-iT™ EdU Alexa Fluor™ 594 Imaging Kit, Thermo Fisher Cat #C10339).

[4] = tested on: DDR signaling; assay: DDR signaling immunoblotting in primary mouse embryonic fibroblasts
[5] = tested on: U2OS-STING cells; assay: RIF1 and phospho-53BP1 foci immunofluorescence; type: cell-based, human; details: pretreated with cGAMP, then etoposide or camptothecin
Description: Immunofluorescence Staining: 16,500 adherent cells/cm^2 were plated on a gelatin coated 8-chamber slide (VWR, Catalogue #62407-296) and treated as indicated. Media was removed and cells were washed with 1×PBS with Ca^2+/Mg^2+ and fixed with 4% PFA for 20 minutes. Fixed cells were permeabilized with PBS+0.1% Triton-X and washed 3 times with PBS+0.1% Tween20. After treatment as indicated, non-adherent THP1 cells were collected by centrifugation, washed in cold PBS and fixed in PFA. Post-fixation, they were washed with PBS, spotted on gelatin coated “PTFE” Printed Slides (Electron Microscopy Sciences, Cat #63424-06), and air-dried. For γH2AX staining, permeabilized cells were blocked in Serum-free DAKO Protein Block (Agilent, Catalogue #X0909) for 1 hr at room temperature. Cells were incubated in primary antibody (γH2AX, 1:500; anti-HA, 1:100; Table 1) in DAKO antibody diluent at 4° C. overnight on a rocker platform. U2OS-STING cells undergoing Rad51 staining were first fixed in methanol for 20 minutes in −20° C., blocked for 1 hr with donkey block (2% normal donkey serum, 1% BSA, 0.1% Triton X 100, 0.05% Tween20, 0.05% Sodium Azide in PBS), then finally incubated in an anti-Rad51 antibody overnight at 4° C. (Bio-academia Cat #70-001, 1:6000 in 5% milk in TBST). […]

Which results are given for Nc1nc2c(ncn2[C@@H]2O[C@@H]3COP(=O)(O)O[C@H]4[C@@H](O)[C@H](n5cnc6c(N)ncnc65)O[C@@H]4COP(=O)(O)O[C@@H]2[C@@H]3O)c(=O)[nH]1 [cGAMP, cyclic guanosine monophosphate-adenosine monophosphate]?
HDR-mediated CRISPR editing (mCherry positive cells) [1]: significantly dampened HDR-mediated CRISPR editing; camptothecin-induced DNA damage (comet tail length) ([2]; THP1, cGAMP 6 hours then 1 μM camptothecin 16 hours): exacerbates camptothecin-induced DNA damage; DNA strand breaks in comet assay ([2]; THP1 cells, cGAMP 16 hours): no strand breaks were observed; DNA damage-induced RAD51 and RPA foci formation [3]: suppressed DNA damage-induced RAD51 and RPA foci formation in EdU-positive S-phase cells; cGAMP-induced H2AX phosphorylation ([4]; Ifnar1−/− or Stat2−/− primary MEFs): unimpaired; activation of DDR marker γH2AX ([4]; Irf3−/− primary MEFs, 16 hours): proceeded normally; activation of DDR by cGAMP (γH2AX) ([4]; Sting−/− primary MEFs, 16 hours): abrogated by the deletion of STING; DDR activation (γH2AX) ([4]; WT primary MEF, Pam3CSK4 500 ng/ml 6 hours, HT-DNA 4 ug/6-well 6 hours, 5′ppp-dsRNA 0.5 μg/6 well 6 hours, cGAMP 16 hours): activated the DDR; RIF1 and phospho-53BP1 foci formation [5]: augmented the RIF1 and phospho-53BP1 foci formation
